Data set [1] addresses T1, human DNA topoisomerase IIα (Homo sapiens, UniProt P11388).
T1 construct: purchased TopoGEN, Inc
Briefly: Human DNA topoisomerase IIα activity assay (TopoGEN kit, plasmid based). In kind it is biochemical.

Data set [2] concerns MCF7 (breast) carcinoma cell line. Briefly: MTT anti-proliferative assay, MCF7. The class given is cell-based. The settings on record: Homo sapiens, MCF7, 72 h; read-out: IC50, μM ± SD, MCF7. (In general: Formazan colour is commonly taken as a measure of viable cells.)
Data set [3] concerns A431 (squamous skin) carcinoma cell line. Briefly: MTT anti-proliferative assay, A431. The class given is cell-based. The settings on record: Homo sapiens, A-431, 72 h; read-out: IC50, μM ± SD, A431.
In data set [4] the test system is HCT116 (colon) carcinoma cell line. The data set is described as follows: MTT anti-proliferative assay, HCT116. The settings on record: Homo sapiens, HCT-116, 72 h; read-out: IC50, μM ± SD, HCT116. The class given is cell-based.
The test system of data set [5] is RPE1 (normal human immortalized retinal pigment epithelial cell line). Briefly: MTT assay on normal cells, RPE1. In kind it is cell-based. The settings on record: RPE-1, RPE1 normal (non-cancer) cell line, read-out: IC50, μM ± SD, RPE1. As to the method: In-vitro antitumor screening
The targeted piperidinecarboxamides 24‒51 were screened for their antitumor properties against HCT116 (colon), MCF7 (breast) and A431 (squamous skin) carcinoma cell lines by the standard mitochondrial dependent reduction of yellow MTT [3-(4,5-dimethylthiazol-2-yl)-2,5-diphenyl-tetrazolium bromide] to purple formazan technique.11 Cells were suspended in McCoy’s 5A medium for HCT116, DMEM for MCF-7 and A431 in addition to 1% antibiotic–antimycotic mixture (10000 μg ml-1 potassium penicillin, 10000 μg ml-1 streptomycin sulfate and 25 μg ml-1 amphotericin B), 10% fetal bovine serum and 1% L-glutamine at 37 °C, under 5% CO2 and 95% humidity. Cells were seeded at concentration of 30000 cells per well in fresh complete growth medium in 96-well tissue culture microtiter plates for 24 h. Media was aspirated, fresh complete medium was added and cells were incubated with different concentrations of the tested compound to give a final concentration of [50, 25, 12.5 and 6.25 μM ([…] and 0.375 μM for the high potent analogues)]. 0.5% DMSO was used as negative control and 5-fluorouracil was used as positive control (standard reference). Triplicate wells were prepared for each individual dose. After 72 h of incubation, medium was aspirated, 40 μl MTT salt (2.5 mg ml-1) were added to each well and incubated for further 4 h at 37 °C.
To stop the reaction and dissolve the formed crystals, 150 μl of 10% sodium dodecyl sulfate (SDS) in deionized water were added to each well and incubated overnight at 37 °C. The absorbance was then measured at 570 nm and a reference wavelength of 595 nm.
Data were collected as mean values for experiments performed in triplicates for each individual dose which had been measured by MTT assay. Control experiments did […]
survival was calculated according to equ. (1).
Surviving fraction = … . (1)
The synthesized compounds 24‒51 were also tested against RPE1 (normal human immortalized retinal pigment epithelial cell line) cell to determine the toxicity/selectivity […]
towards normal cells relative to the carcinoma cell lines utilized. The IC50 (concentration […]
was determined using Graph-Pad PRISM version-5 software. Statistical calculations for determination of the mean and standard error values were determined by SPSS 16 […]
8:1 which is the ratio between the data points and the number of QSAR descriptor).
Human DNA topoisomerase IIα inhibitory properties

As a reminder, the IC50 is the concentration that gives 50% inhibition. Broadly, the melting point is the temperature, or range, at which the solid turns liquid.

T1 sequence (P11388 whole entry): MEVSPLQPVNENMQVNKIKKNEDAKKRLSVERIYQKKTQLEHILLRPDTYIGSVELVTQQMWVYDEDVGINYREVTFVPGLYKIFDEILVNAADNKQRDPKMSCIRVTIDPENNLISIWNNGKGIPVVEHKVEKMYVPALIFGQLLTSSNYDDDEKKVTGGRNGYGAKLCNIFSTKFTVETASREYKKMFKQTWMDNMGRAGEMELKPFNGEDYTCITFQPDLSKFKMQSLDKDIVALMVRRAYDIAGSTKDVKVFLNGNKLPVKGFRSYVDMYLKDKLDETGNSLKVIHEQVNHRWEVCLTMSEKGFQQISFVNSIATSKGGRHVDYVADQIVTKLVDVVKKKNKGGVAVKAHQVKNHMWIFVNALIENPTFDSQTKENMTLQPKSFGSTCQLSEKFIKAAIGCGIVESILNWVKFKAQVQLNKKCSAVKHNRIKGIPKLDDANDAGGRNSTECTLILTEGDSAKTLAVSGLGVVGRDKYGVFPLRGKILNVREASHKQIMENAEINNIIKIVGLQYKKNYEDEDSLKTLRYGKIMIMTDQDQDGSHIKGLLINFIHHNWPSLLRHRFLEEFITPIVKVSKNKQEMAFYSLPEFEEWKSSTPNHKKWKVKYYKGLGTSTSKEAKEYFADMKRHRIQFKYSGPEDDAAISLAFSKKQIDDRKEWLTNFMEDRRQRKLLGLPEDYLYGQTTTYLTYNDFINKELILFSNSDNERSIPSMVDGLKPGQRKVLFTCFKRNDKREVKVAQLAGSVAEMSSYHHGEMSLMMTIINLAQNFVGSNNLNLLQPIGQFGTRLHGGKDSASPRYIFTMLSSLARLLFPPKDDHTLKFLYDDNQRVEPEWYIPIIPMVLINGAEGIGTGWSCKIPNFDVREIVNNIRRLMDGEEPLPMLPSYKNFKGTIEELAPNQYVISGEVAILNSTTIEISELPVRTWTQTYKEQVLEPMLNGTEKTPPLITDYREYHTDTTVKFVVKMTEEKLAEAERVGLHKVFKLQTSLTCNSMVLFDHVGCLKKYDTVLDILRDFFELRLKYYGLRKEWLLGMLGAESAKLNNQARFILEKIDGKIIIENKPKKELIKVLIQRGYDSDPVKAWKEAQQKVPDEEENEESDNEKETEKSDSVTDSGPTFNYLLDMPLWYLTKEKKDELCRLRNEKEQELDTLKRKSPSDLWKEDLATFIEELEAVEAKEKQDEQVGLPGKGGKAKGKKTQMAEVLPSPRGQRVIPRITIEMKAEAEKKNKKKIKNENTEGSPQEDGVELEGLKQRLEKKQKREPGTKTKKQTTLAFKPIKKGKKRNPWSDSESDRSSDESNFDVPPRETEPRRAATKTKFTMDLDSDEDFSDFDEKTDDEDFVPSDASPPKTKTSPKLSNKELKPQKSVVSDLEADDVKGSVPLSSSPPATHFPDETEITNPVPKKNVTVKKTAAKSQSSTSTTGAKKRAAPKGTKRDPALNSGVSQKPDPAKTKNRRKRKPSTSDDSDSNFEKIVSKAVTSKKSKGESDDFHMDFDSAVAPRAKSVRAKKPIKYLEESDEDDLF

Regarding `COc1ccc(/C=C2\CN(C(=O)NCc3ccccc3)C/C(=C\c3ccc(OC)cc3)C2=O)cc1` [Compound 47, N-Benzyl-3,5-bis[(E)-4-methoxybenzylidene]-4-oxopiperidine-1-carboxamide], the melting point was in the range of 177 to 179 °C. Also, the IC50 in data set [1] is 33 ± 1.28 µM. The IC50 in data set [2] is 4.89 ± 0.25 µM. For the same compound, the concentration for half-maximal inhibition (IC50) in data set [3] stood at 7.98 ± 1.34 µM. Besides, in data set [4], the half-maximal inhibitory concentration (IC50) was found to be 1.29 ± 0.19 µM. Further, in data set [5], the half-maximal inhibitory concentration (IC50) is over 50 µM.

Take `O=C1/C(=C/c2ccc(Cl)cc2)CN(C(=O)Nc2ccc(Cl)cc2)C/C1=C\c1ccc(Cl)cc1` [Compound 30, 3,5-Bis[(E)-4-chlorobenzylidene]-N-(4-chlorophenyl)-4-oxopiperidine-1-carboxamide]: the melting point lay in the range of 185 to 187 °C. For the same compound, in data set [1], the half-maximal inhibitory concentration (IC50) amounted to 41.8 ± 2.42 µM. Besides, the IC50 in data set [2] stood at 1.13 ± 0.29 µM. Besides, in data set [3], the IC50 came to 0.64 ± 0.08 µM. Besides, the half-maximal inhibitory concentration (IC50) in data set [4] stood at 0.58 ± 0.07 µM. Moreover, in data set [5], the IC50 stood at 4.89 ± 1.97 µM.

(Values after paper PMC9073595, “Synthesis, human topoisomerase IIα inhibitory properties and molecular modeling studies of anti-proliferative curcumin mimics” (RSC Advances, 2019).)
